In this experiment the target is T1, human recombinant ROCK II (Homo sapiens, UniProt O75116).
T1 construct: recombinant human ROCK-II residues 11-552; His6 (N); purchased Upstate Ltd., Dundee, UK
Description: Determination of Rho Kinase Inhibition (ROCK II, Caliper peptide phosphorylation assay). In kind it is biochemical. The note with it: 60 min incubation at 32° C., respective form (salt or free base) as obtained in the examples. Here is the method: Determination of Rho Kinase Inhibition
To measure Rho-kinase inhibition, IC50 values were determined according to the following protocol:
Active human recombinant ROCK II (N-terminal His6-tagged recombinant human ROCK-II residues 11-552) was purchased from Upstate Ltd., Dundee, UK. The peptide substrate, Fluorescein-AKRRRLSSLRA-COOH, was obtained from JPT Peptide Technologies, Berlin, Germany. Adenosine-5′-triphosphate (ATP), bovine serum albumine (BSA), dimethylsulphoxide (DMSO), 4-(2-Hydroxyethyl)piperazine-1-ethanesulfonic acid (Hepes), Brij-35 and dithiothreitol (DTT) were purchased from Sigma-Aldrich, Munich, Germany. Tris(hydroxymethyl)-aminomethane (Tris), magnesium chloride, NaOH, 1M HCl and EDTA were obtained from Merck Biosciences, Darmstadt, Germany. “Complete” protease inhibitor was from Roche Diagnostics, Mannheim, Germany.
Test compounds were diluted to the appropriate concentrations in buffer 1 (25 mM Tris-HCl, pH 7.4, 5 mM MgCl2, 2 mM DTT, 0.02% (w/v) BSA and 3% DMSO). The ROCK II enzyme was diluted to a concentration of 100 ng/ml in buffer 2 (25 mM Tris-HCl, pH 7.4, 5 mM MgCl2, 2 mM DTT and 0.02% (w/v) BSA). The peptide substrate and ATP were diluted to concentrations of 3 μM and 120 μM, respectively, in the buffer 2. Two μl of the compound solution were mixed with 2 μl of the diluted enzyme in a 384-well small volume microtiter plate (Greiner, Bio-One, Frickenhausen, Germany), and the kinase reaction was initiated by addition of 2 μl of the solution containing peptide substrate and ATP. After 60 min incubation at 32° C., the reaction was stopped by addition of 20 μl of a solution containing 100 mM Hepes-NaOH, pH 7.4, 0.015% (v/v) Brij-35, 45 mM EDTA and 0.227% chip coating reagent 1 (Caliper Lifescience Inc, Hopkinton, Mass.). Phosphorylation of the substrate peptide was then detected on a Caliper 3000 instrument essentially as described by Pommereau et al (J. Biomol. Screening 9(5), 409-416, 2004). Separation conditions were as follows: Pressure −1.3 psi, upstream voltage −1562 V, downstream voltage −500 V, sample sip time 200 ms. Positive controls (buffer 1 instead of compound) and negative controls (buffer 1 instead of compound and buffer 2 instead of ROCK II) were run in parallel on each plate. The following products/compounds were tested in said assay by using the respective form (salt or free base) obtained as in the examples described above and the following activities were measured.

Structures can show the parent of a compound that is named as a salt.

The IC50 is the concentration that inhibits the measured activity by half.

T1 sequence (O75116 11-552): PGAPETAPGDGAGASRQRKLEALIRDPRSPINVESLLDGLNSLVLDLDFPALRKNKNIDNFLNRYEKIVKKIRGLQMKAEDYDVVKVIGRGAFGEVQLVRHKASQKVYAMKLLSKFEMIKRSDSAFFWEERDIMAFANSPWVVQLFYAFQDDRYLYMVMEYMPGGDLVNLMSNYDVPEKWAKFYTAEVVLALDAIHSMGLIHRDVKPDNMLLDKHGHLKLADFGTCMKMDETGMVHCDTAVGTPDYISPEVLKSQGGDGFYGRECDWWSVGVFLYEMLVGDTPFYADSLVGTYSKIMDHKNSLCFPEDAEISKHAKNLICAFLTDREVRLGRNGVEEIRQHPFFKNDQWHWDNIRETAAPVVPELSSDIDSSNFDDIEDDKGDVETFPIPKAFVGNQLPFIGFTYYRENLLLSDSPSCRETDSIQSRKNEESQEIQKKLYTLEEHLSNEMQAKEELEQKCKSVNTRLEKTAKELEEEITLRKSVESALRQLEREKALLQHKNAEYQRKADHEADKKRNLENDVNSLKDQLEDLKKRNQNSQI

For `O=c1[nH]ccc2cc(SC3CCNCC3)c(Cl)cc12` [Example 286, 7-Chloro-6-(piperidin-4-ylsulfanyl)-2H-isoquinolin-1-one hydrochloride], the IC50 was ≤ 1000 nM.
To `Cc1ccc(CN2CC[C@H](Nc3ccc4c(=O)[nH]ccc4c3)C2)cc1` [Example 236, 6-[(S)-1-(4-Methyl-benzyl)-pyrrolidin-3-ylamino]-2H-isoquinolin-1-one] belongs ≤ 1000 nM; to `O=c1[nH]ccc2cc(NC3CN(CC4CC4)C3)ccc12` [Example 253, 6-(1-Cyclopropylmethyl-azetidin-3-ylamino)-2H-isoquinolin-1-one], 1000 to 10000 nM.
In the case of `c1cc2cc(N[C@@H]3CCCN(CC4CCCCC4)C3)ccc2cn1` [Example 169, ((R)-1-Cyclohexylmethyl-piperidin-3-yl)-isoquinolin-6-yl-amine], the IC50 was 1000 to 10000 nM.
Under `Clc1cc2cnccc2cc1SC1CCCNC1` (racemic) [Example 269, (Rac)-7-Chloro-6-(piperidin-3-ylsulfanyl)-isoquinoline hydrochloride] stands ≤ 1000 nM.
Under `O=c1[nH]ccc2cc(N[C@H]3CCN(CC4CCCNC4)C3)ccc12` (stereo partly drawn) [Example 248, 6-((S)-1-Piperidin-3-ylmethyl-pyrrolidin-3-ylamino)-2H-isoquinolin-1-one] stands 1000 to 10000 nM; under `O=c1[nH]ccc2cc(N[C@H]3CCN(CC4CC4)C3)ccc12` [Example 226, 6-((S)-1-Cyclopropylmethyl-pyrrolidin-3-ylamino)-2H-isoquinolin-1-one], ≤ 1000 nM.
With `c1cc2cc(N[C@@H]3CCCN(CC4CC4)C3)ccc2cn1` [Example 166, ((R)-1-Cyclopropylmethyl-piperidin-3-yl)-isoquinolin-6-yl-amine], the IC50 is 1000 to 10000 nM.
`O=c1[nH]ccc2cc(NC3CN(Cc4cccc(Cl)c4F)C3)ccc12` [Example 249, 6-[1-(3-Chloro-2-fluoro-benzyl)-azetidin-3-ylamino]-2H-isoquinolin-1-one]: the IC50 is ≤ 1000 nM.
Under `CCCc1cc2cnccc2cc1SC1CCNCC1` [Example 277, 6-(Piperidin-4-ylsulfanyl)-7-propyl-isoquinoline hydrochloride] stands ≤ 1000 nM; under `CC(C)N1CC(Nc2ccc3c(=O)[nH]ccc3c2)C1` [Example 251, 6-(1-Isopropyl-azetidin-3-ylamino)-2H-isoquinolin-1-one], 1000 to 10000 nM.
To `CN(c1ccc2cnccc2c1)C1CCN(CCC(F)(F)F)CC1` [Example 99, Isoquinolin-6-yl-methyl-[1-(3,3,3-trifluoro-propyl)-piperidin-4-yl]-amine] belongs 1000 to 10000 nM; to `CC(C)CCN1CCC[C@@H](Nc2ccc3c(=O)[nH]ccc3c2)C1` [Example 199, 6-[(R)-1-(3-Methyl-butyl)-piperidin-3-ylamino]-2H-isoquinolin-1-one], ≤ 1000 nM; to `O=c1[nH]ccc2cc(N[C@@H]3CCCN(Cc4ccncc4)C3)ccc12` [Example 213, 6-((R)-1-Pyridin-4-ylmethyl-piperidin-3-ylamino)-2H-isoquinolin-1-one], 1000 to 10000 nM.
As to `O=c1[nH]ccc2cc(S(=O)(=O)C3CCNCC3)c(Cl)cc12` [Example 288, 7-Chloro-6-(piperidine-4-sulfonyl)-2H-isoquinolin-1-one hydrochloride], the IC50 was ≤ 1000 nM.
Under `O=c1[nH]ccc2cc(N[C@@H]3CCCN(Cc4ccccn4)C3)ccc12` [Example 215, 6-((R)-1-Pyridin-2-ylmethyl-piperidin-3-ylamino)-2H-isoquinolin-1-one] stands 1000 to 10000 nM; under `O=c1[nH]ccc2cc([S+]([O-])C3CCNCC3)c(Cl)cc12` (stereo not shown) [Example 290, 7-Chloro-6-(piperidine-4-sulfinyl)-2H-isoquinolin-1-one hydrochloride], 1000 to 10000 nM.
Under `Brc1cc2cnccc2cc1SC1CCCNCC1` (racemic) [Example 271, (Rac)-6-(Azepan-4-ylsulfanyl)-7-bromo-isoquinoline hydrochloride] stands ≤ 1000 nM.
To `O=c1[nH]ccc2cc(N[C@H]3CCN(Cc4cccc(Cl)c4F)C3)ccc12` [Example 220, 6-[(S)-1-(3-Chloro-2-fluoro-benzyl)-pyrrolidin-3-ylamino]-2H-isoquinolin-1-one] belongs ≤ 1000 nM; to `O=c1[nH]ccc2cc(N[C@H]3CCN(Cc4ccc5ccccc5c4)C3)ccc12` [Example 243, 6-((S)-1-Naphthalen-2-ylmethyl-pyrrolidin-3-ylamino)-2H-isoquinolin-1-one], ≤ 1000 nM.
Turning to `Cn1cc(CN2CC[C@H](Nc3ccc4c(=O)[nH]ccc4c3)C2)cn1` [Example 246, 6-[(S)-1-(1-Methyl-1H-pyrazol-4-ylmethyl)-pyrrolidin-3-ylamino]-2H-isoquinolin-1-one], the half-inhibitory concentration (IC50) was 1000 to 10000 nM.
To `O=c1[nH]ccc2cc(N[C@H]3CCN(Cc4cc(Cl)cc(Cl)c4)C3)ccc12` [Example 234, 6-[(S)-1-(3,5-Dichloro-benzyl)-pyrrolidin-3-ylamino]-2H-isoquinolin-1-one] belongs 1000 to 10000 nM; to `O=c1[nH]ccc2cc(NC3CN(Cc4ccccc4Cl)C3)ccc12` [Example 259, 6-[1-(2-Chloro-benzyl)-azetidin-3-ylamino]-2H-isoquinolin-1-one], ≤ 1000 nM.
`O=c1[nH]ccc2cc(N[C@@H]3CCCN(Cc4ccccc4)C3)ccc12` [Example 207, 6-((R)-1-Benzyl-piperidin-3-ylamino)-2H-isoquinolin-1-one]: the IC50 is ≤ 1000 nM.
To `O=c1[nH]ccc2cc(N[C@@H]3CCCN(Cc4ccc5ccccc5c4)C3)ccc12` [Example 218, 6-((R)-1-Naphthalen-2-ylmethyl-piperidin-3-ylamino)-2H-isoquinolin-1-one] belongs ≤ 1000 nM; to `CCCCN1CCC[C@@H](Nc2ccc3c(=O)[nH]ccc3c2)C1` [Example 196, 6-((R)-1-Butyl-piperidin-3-ylamino)-2H-isoquinolin-1-one], ≤ 1000 nM; to `Clc1cc2cnccc2cc1SCC1CCNCC1` [Example 279, 7-Chloro-6-(piperidin-4-ylmethylsulfanyl)-isoquinoline hydrochloride], 1000 to 10000 nM.
Under `CCCN1CCC[C@@H](Nc2ccc3c(=O)[nH]ccc3c2)C1` [Example 195, 6-((R)-1-Propyl-piperidin-3-ylamino)-2H-isoquinolin-1-one] stands 1000 to 10000 nM.

The values are drawn from patent US8748614B2, “Substituted isoquinoline and isoquinolinone derivatives” (Sanofi, priority 2006, dated 2014).
